Measured values from PMC11048033, “Dual Anti-Inflammatory and Anticancer Activity of Novel 1,5-Diaryl Pyrazole Derivatives: Molecular Modeling, Synthesis, In Vitro Activity, and Dynamics Study” (Biomedicines, 2024).

Target: T1, Human COX-2 (Homo sapiens, UniProt P35354)
T1 construct: purchased Cayman Chemicals 701230
T1 sequence (P35354 18-604): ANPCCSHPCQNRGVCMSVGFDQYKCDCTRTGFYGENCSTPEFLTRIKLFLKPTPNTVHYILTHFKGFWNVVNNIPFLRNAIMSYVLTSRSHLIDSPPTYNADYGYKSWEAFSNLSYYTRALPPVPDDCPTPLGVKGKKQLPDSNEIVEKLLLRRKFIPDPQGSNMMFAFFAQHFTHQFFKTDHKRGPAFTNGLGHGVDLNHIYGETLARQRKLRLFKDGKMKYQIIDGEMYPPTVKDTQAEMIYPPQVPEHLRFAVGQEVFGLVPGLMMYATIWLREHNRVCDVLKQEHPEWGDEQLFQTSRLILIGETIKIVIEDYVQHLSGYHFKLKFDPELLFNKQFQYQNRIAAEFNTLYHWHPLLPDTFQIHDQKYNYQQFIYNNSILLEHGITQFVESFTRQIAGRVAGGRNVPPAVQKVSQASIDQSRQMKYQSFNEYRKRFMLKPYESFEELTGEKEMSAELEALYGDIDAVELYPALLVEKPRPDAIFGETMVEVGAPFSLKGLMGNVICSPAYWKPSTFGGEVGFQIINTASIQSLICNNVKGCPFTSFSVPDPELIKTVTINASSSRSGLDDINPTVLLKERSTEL
Experiment: In vitro COX-2 enzymatic assay (Cayman COX (human) Inhibitor Screening Assay Kit)
Format: biochemical
Experimental: The ability of the compounds to inhibit COX -2 (IC50 values, µM) was determined by using a “COX (human) Inhibitor Screening Assay Kit” procured from Cayman Chemicals (catalog number 701230). With a slight modification in the method as defined in the reference, the COX-2 inhibition assay was performed. Using the percent conversion of arachidonic acid (AA) to PGH2, the enzyme activity was calculated. By enzyme immunoassay PGF2α, which is produced from PGH2 by reduction with stannous chloride, is calculated. The test compounds’ stock solutions are prepared by dissolving in a minimum amount of DMSO. Human COX-2 (10 µL) in the presence of 10 µL of heme was suspended in 0.1M Tris-HCl buffer (pH 8.0) which contains 2 mM phenol and 5 mM EDTA. This was added to various concentrations of test compounds and, on incubating the solutions at 37 °C for 5 min, 10 µL of AA solution were added. Later, the COX reaction was stopped by adding 1M HCl (50 µL) after 2 min. The intensity of the yellow color which is produced as the product of the enzymatic reaction is determined spectrophotometrically. The percent inhibition was calculated by comparing the compound treated to different control incubations. […] The determinations are done in triplicate and the IC50 (µM) was determined using the concentration–inhibition response curve.
During the initiation of the inflammatory process, the COX enzyme plays a vital role in the progression of inflammatory response. The inflammatory mediators that arise due to the action of COX lead to the chemoattraction of neutrophils, macrophages, eosinophils, etc. […] This was carried out with the help of a COX (human) inhibitor screening assay kit (Item no. 701230) from Cayman chemicals. […] A test substance concentration was considered to be inhibitive when it inhibited human COX-1 or COX-2 by 50%. The compound’s selectivity was measured by its selectivity index values, derived as IC50 (COX-1)/IC50 (COX-2).

Structure (SMILES) | % COX-2 Inhibition (0.781 μg/ml) | % COX-2 Inhibition (1.562 μg/ml) | % COX-2 Inhibition (3.125 μg/ml) | % COX-2 Inhibition (6.25 μg/ml) | % COX-2 Inhibition (12.5 μg/ml) | % COX-2 Inhibition (25 μg/ml) | % COX-2 Inhibition (50 μg/ml) | % COX-2 Inhibition (100 μg/ml) | % COX-2 Inhibition (250 μg/ml) | Selectivity Index
NS(=O)(=O)c1ccc(-n2nc(C(=O)NN=Cc3cccc(Oc4ccccc4)c3)cc2-c2ccc(Cl)cc2)cc1 [Compound T3, 4-(5-(4-chlorophenyl)-3-(2-(3-phenoxybenzylidene) hydrazine-1-carbonyl)-1H-pyrazol-1-yl) benzenesulfonamide] | 55.34 ± 1.03% | 61.82 ± 1.20% | 66.67 ± 0.96% | 71.48 ± 0.78% | 73.95 ± 0.27% | 76.28 ± 0.70% | 78.94 ± 0.72% | 81.06 ± 0.47% | 85.38 ± 0.73% | –
Cc1cc(C=NNC(=O)c2cc(-c3ccc(Br)cc3)n(-c3ccc(S(N)(=O)=O)cc3)n2)cc(C)c1OCc1ccccc1 [Compound T5, 4-(3-(2-(4-(benzyloxy)-3,5-dimethylbenzylidene) hydrazine-1-carbonyl)-5-(4-bromophenyl)-1H-pyrazol-1-yl) benzenesulfonamide] | 65.66 ± 1.05% | 72.1 ± 6.01% | 78.03 ± 2.98% | 84.28 ± 2.50% | 85.04 ± 2.38% | 86.71 ± 0.50% | 87.64 ± 1.43% | 88.64 ± 0.86% | 89.35 ± 0.86% | 7.16
